Measurements reported in patent publication US9828379B2 (priority 2013, dated 2017).

Key:
[1] = target: T1, ABHD6 (Mus musculus, UniProt Q8R2Y0); test: In vitro competitive activity-based protein profiling (Table 2, % inhibition at 1 μM); assay type: biochemical; conditions: read-out: % Inhibition at 1 μM ABHD6
T1 sequence (Q8R2Y0 1-336): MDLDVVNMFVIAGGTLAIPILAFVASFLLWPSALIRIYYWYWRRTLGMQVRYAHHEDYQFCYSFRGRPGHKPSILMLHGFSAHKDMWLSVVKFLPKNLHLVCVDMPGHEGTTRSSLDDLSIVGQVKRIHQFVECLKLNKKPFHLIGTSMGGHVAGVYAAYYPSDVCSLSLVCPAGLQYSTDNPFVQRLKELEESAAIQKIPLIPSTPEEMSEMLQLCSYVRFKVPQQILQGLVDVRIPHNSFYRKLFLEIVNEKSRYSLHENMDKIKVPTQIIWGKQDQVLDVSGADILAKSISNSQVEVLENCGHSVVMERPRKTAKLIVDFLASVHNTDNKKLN

[2] = target: T2, FAAH (Mus musculus, UniProt O08914); test: as above; assay type: biochemical; conditions: read-out: % Inhibition at 1 μM FAAH
T2 sequence (O08914 1-579): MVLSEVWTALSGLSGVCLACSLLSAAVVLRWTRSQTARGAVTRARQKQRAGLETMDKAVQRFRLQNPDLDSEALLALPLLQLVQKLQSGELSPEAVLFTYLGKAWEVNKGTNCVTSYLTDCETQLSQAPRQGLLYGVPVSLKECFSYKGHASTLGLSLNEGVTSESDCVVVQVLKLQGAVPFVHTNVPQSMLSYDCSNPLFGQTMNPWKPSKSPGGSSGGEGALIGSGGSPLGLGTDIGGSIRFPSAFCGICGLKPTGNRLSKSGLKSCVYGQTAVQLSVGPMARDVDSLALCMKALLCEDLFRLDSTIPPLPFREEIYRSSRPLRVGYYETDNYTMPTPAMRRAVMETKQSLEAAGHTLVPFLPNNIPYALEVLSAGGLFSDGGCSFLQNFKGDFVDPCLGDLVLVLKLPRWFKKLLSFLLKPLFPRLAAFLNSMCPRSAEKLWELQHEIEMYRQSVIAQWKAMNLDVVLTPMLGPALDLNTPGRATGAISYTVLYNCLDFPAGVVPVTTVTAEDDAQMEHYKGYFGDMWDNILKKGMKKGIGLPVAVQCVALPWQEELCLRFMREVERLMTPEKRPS

[3] = target: T2, FAAH; test: biochemical; conditions: in vitro competitive ABPP
[4] = target: T3, Mouse brain MAGL (Mus musculus, UniProt O35678); test: Mouse brain proteomes from inhibitor treated mice (oral gavage, ABPP analysis); assay type: in vivo; conditions: p.o., sacrificed 4 h following administration
T3 construct: from tissue; host or cells: brain of wild-type C57Bl/6J mice dosed by oral gavage
T3 sequence (O35678 1-303): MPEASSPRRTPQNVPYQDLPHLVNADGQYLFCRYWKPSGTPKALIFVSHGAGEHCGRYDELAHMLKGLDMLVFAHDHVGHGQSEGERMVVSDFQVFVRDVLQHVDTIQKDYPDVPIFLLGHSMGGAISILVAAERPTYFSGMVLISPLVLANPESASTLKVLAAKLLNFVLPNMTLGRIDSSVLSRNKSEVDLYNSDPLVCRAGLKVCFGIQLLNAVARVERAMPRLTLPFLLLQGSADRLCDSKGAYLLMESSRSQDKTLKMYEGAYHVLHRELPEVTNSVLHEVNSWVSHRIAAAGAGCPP

[5] = target: T4, MAGL (Mus musculus, UniProt O35678); test: biochemical; conditions: mouse; in vitro competitive ABPP; read-out: Mouse (IC50 value, nM) MAGL
T4 sequence (O35678 1-303): T3 sequence (O35678 1-303)

[6] = target: T1, ABHD6; test: biochemical; conditions: in vitro competitive ABPP
[7] = target: T4, MAGL; test: In vitro competitive activity-based protein profiling (Table 2, % inhibition at 1 μM); assay type: biochemical; conditions: read-out: % Inhibition at 1 μM MAGL
Description: After 30 min, FP—Rh (1.0 μL, 50 μM in DMSO) was added and the mixture was incubated for another 30 min at 37° C. Reactions were quenched with SDS loading buffer (50 μL-4×) and run on SDS-PAGE.
Cell lysates were diluted with mock proteomes for use in competitive ABPP experiments.

Compound | inhibition at 1 µM [1] [%] | inhibition at 1 µM [2] [%] | IC50 [3] [nM] | inhibition at 5 mg/kg [4] [%] | IC50 [5] [nM] | IC50 [6] [nM] | inhibition at 1 µM [7] [%]
Cc1cccc(CN2CC3CN(C(=O)OC(C(F)(F)F)C(F)(F)F)CC3C2)c1N1CCC2(CCOC2)C1 (stereo not shown) [Example 40, 1,1,1,3,3,3-Hexafluoropropan-2-yl 5-[(3-methyl-2-[2-oxa-7-azaspiro[4.4]nonan-7-yl]phenyl)methyl]-octahydropyrrolo[3,4-c]pyrrole-2-carboxylate] | < 25 | < 25 | 1000 to 10000 | 25 to 75 | < 100 | 1000 to 10000 | > 75
CCc1cc(CN2CC3CN(C(=O)OC(C(F)(F)F)C(F)(F)F)CC3C2)n(-c2ccccc2Cl)n1 (stereo not shown) [Example 169, 1,1,1,3,3,3-hexafluoropropan-2-yl 5-[[1-(2-chlorophenyl)-3-ethyl-1H-pyrazol-5-yl]methyl]-octahydropyrrolo[3,4-c]pyrrole-2-carboxylate] | 25 to 75 | < 25 | 1000 to 10000 | ≤ 25 | < 100 | 1000 to 10000 | > 75
CC(C)n1cc(CN2CC3CN(C(=O)OC(C(F)(F)F)C(F)(F)F)CC3C2)c(C2CCN(S(C)(=O)=O)CC2)n1 (stereo not shown) [Example 57, 1,1,1,3,3,3-Hexafluoropropan-2-yl 5-[[3-(1-methanesulfonylpiperidin-4-yl)-1-(propan-2-yl)-1H-pyrazol-4-yl]methyl]-octahydropyrrolo[3,4-c]pyrrole-2-carboxylate] | 25 to 75 | < 25 | > 10000 | ≤ 25 | < 100 | 1000 to 10000 | > 75
CC(C)(C)c1cc(CN2CC3CN(C(=O)OC(C(F)(F)F)C(F)(F)F)CC3C2)n(-c2ccccc2Cl)n1 (stereo not shown) [Example 170, 1,1,1,3,3,3-hexafluoropropan-2-yl 5-[[3-tert-butyl-1-(2-chlorophenyl)-1H-pyrazol-5-yl]methyl]-octahydropyrrolo[3,4-c]pyrrole-2-carboxylate] | 25 to 75 | < 25 | > 10000 | 25 to 75 | < 100 | 1000 to 10000 | > 75
O=C(OC(C(F)(F)F)C(F)(F)F)N1CC2CN(Cc3ccc(Cl)cc3N3CCC(C(=O)N4CCCC4)CC3)CC2C1 (stereo not shown) [Example 37, 1,1,1,3,3,3-Hexafluoropropan-2-yl 5-[(4-chloro-2-[4-[(pyrrolidin-1-yl)carbonyl]piperidin-1-yl]phenyl)methyl]-octahydropyrrolo[3,4-c]pyrrole-2-carboxylate] | < 25 | 25 to 75 | 1000 to 10000 | ≤ 25 | < 100 | 1000 to 10000 | > 75
CCn1cc(CN2CC3CN(C(=O)OC(C(F)(F)F)C(F)(F)F)CC3C2)c(-c2cccc(N3CCC3)c2)n1 (stereo not shown) [Example 66, 1,1,1,3,3,3-Hexafluoropropan-2-yl 5-([3-[3-(azetidin-1-yl)phenyl]-1-ethyl-1H-pyrazol-4-yl]methyl)-octahydropyrrolo[3,4-c]pyrrole-2-carboxylate] | 25 to 75 | < 25 | 1000 to 10000 | ≤ 25 | < 100 | 1000 to 10000 | > 75
Cc1c(CN2CC3CN(C(=O)OC(C(F)(F)F)C(F)(F)F)CC3C2)cccc1N1CCOCC1 (stereo not shown) [Example 47, 1,1,1,3,3,3-Hexafluoropropan-2-yl 5-[[2-methyl-3-(morpholin-4-yl)phenyl]methyl]-octahydropyrrolo[3,4-c]pyrrole-2-carboxylate] | 25 to 75 | 25 to 75 | 1000 to 10000 | ≥ 75 | < 100 | 1000 to 10000 | > 75
